Experiment [1] addresses T1, FimH (Escherichia coli, UniProt P08191). Description: SPR, competition in solution with immobilized Fab 1C10. It is filed as binding.
Target sequence in this assay (P08191 22-179): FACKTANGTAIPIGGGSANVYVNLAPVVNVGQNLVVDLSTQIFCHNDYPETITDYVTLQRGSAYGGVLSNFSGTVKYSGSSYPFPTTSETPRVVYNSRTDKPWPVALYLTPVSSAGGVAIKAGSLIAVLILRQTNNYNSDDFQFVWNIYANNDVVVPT
Experiment [2] addresses T1, FimH. Description: co-crystal structure, […] Å. Format: binding.
Target sequence in this assay (P08191 22-179): as above
Experiment [3] deals with T1, FimH. Briefly: inhibition of FimH-dependent bacterial adhesion to […] bladder cells, fimH-negative control. It is filed as cell-based. More on the design: J96 FimH expressed from plasmid pMMB66 on type 1 pili of AAEC185(pUT2002) E. coli.
Target sequence in this assay (P08191 22-300): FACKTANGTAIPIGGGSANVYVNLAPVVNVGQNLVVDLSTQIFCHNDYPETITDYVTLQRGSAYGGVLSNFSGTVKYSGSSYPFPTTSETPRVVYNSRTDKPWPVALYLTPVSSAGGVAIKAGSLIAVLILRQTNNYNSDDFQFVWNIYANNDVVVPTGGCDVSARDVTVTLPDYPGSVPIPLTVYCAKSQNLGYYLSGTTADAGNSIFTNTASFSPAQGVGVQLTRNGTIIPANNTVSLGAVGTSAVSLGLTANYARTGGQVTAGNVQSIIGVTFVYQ

From paper PMC2323111, “Intervening with Urinary Tract Infections Using Anti-Adhesives Based on the Crystal Structure of the FimH–Oligomannose-3 Complex” (PLoS ONE, 2008) come the findings set out here.

Molecules are shown by their SMILES. Read-outs that look alike come from different tables or passages of the source.

Take `CO[C@@H]1O[C@H](CO)[C@@H](O)[C@H](O[C@H]2O[C@H](CO)[C@@H](O)[C@H](O)[C@@H]2O)[C@@H]1O` [Manα1,3ManβOMe]: at FimH [1] (read-out: Kd), the Kd was found to be 112 nM. `CC(=O)N[C@H]1[C@H](O[C@H]2[C@H](O)[C@@H](NC(C)=O)C(O)O[C@@H]2CO)O[C@H](CO)[C@@H](O[C@@H]2O[C@H](CO[C@H]3O[C@H](CO)[C@@H](O)[C@H](O)[C@@H]3O)[C@@H](O)[C@H](O[C@H]3O[C@H](CO)[C@@H](O)[C@H](O)[C@@H]3O)[C@@H]2O)[C@@H]1O` (stereo partly shown) [oligomannose-3]: the “co-crystal structure, 2.1 Å” value at FimH [2] is given as “Oligomannose-3 has been crystallized in complex with the FimH RBD”. With `CCCCCCCO[C@H]1O[C@H](CO)[C@@H](O)[C@H](O)[C@@H]1O` [HM, heptyl α-D-mannose], the “inhibition of FimH-dependent bacterial adhesion to 5637 bladder cells, fimH-nega” value against FimH [3] is “HM is more efficient at reducing FimH-mediated bacterial adherence, in accordance with its higher affinity for FimH”. Take `OC[C@H]1O[C@H](O[C@H]2[C@H](O)[C@@H](CO)OC(O)[C@H]2O)[C@@H](O)[C@@H](O)[C@@H]1O` (mixture of isomers) [Manα1,3Man]: the dissociation constant (Kd) on FimH [1] stood at 281 nM.

As usually defined, the Kd is the free concentration of one partner at which half of the binding sites on the other are occupied at equilibrium, for simple one-to-one binding.
